Data taken from publication PMC7896091, “Synthesis of novel phytol-derived γ-butyrolactones and evaluation of their biological activity” (Scientific Reports, 2021).

Experiments:
BALB/3T3 cells = assay: Toxicity towards normal fibroblasts, SRB assay; type: cell-based; conditions: 72 h exposure, mean ± SD, n.a = no activity in concentration of 5, 25, 125, 625 μM
Protocol: (§1) Human biphenotypic B myelomonocytic leukemia MV4-11, human colon cancer LoVo cell line and normal mouse fibroblast BALB/3T3 cells were obtained from American Type Culture Collection (Rockville, Maryland, USA), human lung carcinoma A549 cells were obtained from European Collection of Authenticated Cell Cultures (UK). All the cell lines are being maintained at the Hirszfeld Institute of Immunology and Experimental Therapy, PAS, Wroclaw, Poland and were cultured according the procedure described before.
(§2) Cell lines were cultured according to the protocol described before. MV4-11 cells were cultured in RPMI 1640 medium (Gibco, UK) with 1.0 mM sodium pyruvate, and 10% fetal bovine serum (FBS) (all from Sigma-Aldrich, Germany). A549, LoVo and LoVo/DX cells were cultured in RPMI 1640 + Opti-MEM (1:1) (both from Gibco, UK) supplemented with 5% fetal bovine serum, 1.0 mM sodium pyruvate (LoVo and LoVo/DX cells) (all from Sigma Aldrich Germany) and 0.1 μg/mL doxorubicin chloride (Accord) (only LoVo/DX cells). BALB/3T3 cells in Dulbecco medium (IIET, Poland) supplemented with 10% fetal bovine serum (Sigma-Aldrich, Germany). All culture media were supplemented with 2 mM L-glutamine (Sigma-Aldrich, Germany), 100 units/mL penicillin, and 100 µg/mL streptomycin (both from Polfa Tarchomin S.A., Poland). All cell lines were grown at 37 °C with 5% CO2 humidified atmosphere.
(§3) The solutions of the compounds (50 mM) were prepared by dissolving the substances in DMSO (Sigma Aldrich, Germany). Then the tested compounds were diluted in culture medium to reach the final concentrations of 625, 125, 25 and 5 μM. Before adding of the tested compounds (24 h prior), the cells were plated in 96-well plates (Sarstedt, Germany) at a density of 1 × 10^4 or 0.5 × 10^4 (A549) cells per well. The assay was performed after 72 h of exposure to 625, 125, 25 and 5 μM of the tested agents. The in vitro cytotoxic effect of all agents was examined using the MTT (MV4-11) or SRB assay, described previously. The results were calculated as an IC50 (inhibitory concentration 50%) the concentration of tested agent, which is cytotoxic for 50% of the cancer cells. Each compound in each concentration was tested in triplicate in a single experiment, which was repeated 3–5 times.

LoVo cells = assay: Antiproliferative activity, SRB assay; type: cell-based, human; conditions: for IC50: 72 h exposure, SRB, mean ± SD, n.a = no activity in concentration of 5, 25, 125, 625 μM; for Selectivity index SI, LoVo: SI = IC50 BALB/3T3 / IC50 LoVo
Protocol: as §1, §2, §3

A549 cells = assay: Antiproliferative activity, SRB assay; type: cell-based, human; conditions: for IC50: 72 h exposure, SRB, mean ± SD, n.a = no activity in concentration of 5, 25, 125, 625 μM; for Selectivity index SI, A549: SI = IC50 BALB/3T3 / IC50 A549
Protocol: as §1, §2, §3

Myzus persicae = assay: Aphid settling (choice test) on treated vs control leaves of Brassica rapa subsp. pekinensis; type: in vivo; conditions: for Mean number of aphids settled on treated (test) leaf: 0.1% solution in 70% ethanol, mean (± SD), n = 8, 20 aphids/replicate; for Effect on aphid settling behavior (deterrent / attractant): choice test, 0.1% solution, significance p < 0.05 Student t-test
Protocol: The peach potato aphids Myzus persicae (Sulzer) and the Chinese cabbage Brassica rapa subsp. pekinensis (Lour.) Hanelt were reared in laboratory at 20 °C, 65% r.h., and L16:8D photoperiod. One to seven days old apterous females of M. persicae and 3-week old plants with 4–5 fully developed leaves were used for experiments. M. persicae were obtained from the laboratory culture maintained at the Department of Botany and Ecology for many generations since 2000. All experiments were carried out under the same conditions of temperature, relative humidity, and photoperiod. The bioassays were started at 10–11.a.m. Each compound was dissolved in 70% ethanol to obtain the recommended 0.1% solution[40]. All compounds were applied on the adaxial and abaxial leaf surfaces by immersing a leaf in the ethanolic solution of a given compound for 30 s.[20]. Control leaves of similar size were immersed in 70% ethanol that was used as a solvent for the studied compounds. Experiments were performed 1 h after the compounds application to allow the evaporation of the solvent. Every plant and aphid were used only once.
This bioassay allows the study of aphid host preferences under semi-natural conditions. In the present study, aphids were given free choice between control and treated excised leaves that were placed in a Petri dish. Aphids were placed in the dish equidistance from treated and untreated leaves, so that aphids could choose between treated (on one half of a Petri dish) and control leaves (on the other half of the dish). […] Each experiment was replicated 8 times (n = 8 replicates, 20 viviparous apterous females/replicate). Aphids that were moving or not on any of the leaves were not counted.
The data of the choice-test were analyzed using Student’s t-test (STATISTICA 13.1. package). […] If aphids settled mainly on the control leaf (p < 0.05), the compound tested in the respective choice-test was stated a deterrent. From the data thus obtained the relative index of deterrence (DI) was calculated: DI = (C − T/C + T) where C was the number of aphids settled on control leaf, T was the number of aphids settled on the leaf treated with the tested compound. The value of DI ranged between 1 (ideal deterrent) and − 1 (ideal attractant)[41].

MV4-11 cells = assay: Cell cycle analysis by flow cytometry (propidium iodide); type: cell-based, human; conditions: MV4-11, 75 µM, 72 h
Protocol: Cell cycle analysis was carried out according to the procedure previously described. The MV4-11 cells were seeded at the density of 1 × 10^5 cells/well of culture medium on 24-well plates (Sarstedt, Germany) to the final volume of 2 mL and were exposed to the test compounds at concentrations 75 μM for 72 h. After incubation, the cells were collected and 1 × 10^6 of cells were washed twice in cold PBS and fixed for 24 h in 70% ethanol at − 20 °C. Then the cells were washed twice in PBS and incubated with RNAse (8 μg/mL, Fermentas, Germany) at 37 °C for 1 h. The cells were stained for 30 min. with propidium iodide (50 μg/mL, Sigma Aldrich, Germany) at 4 °C and the cellular DNA content was analyzed by flow cytometry using BD LSRFortessa cytometer (BD Bioscience, San Jose, USA). Compounds at each concentration were tested at least three times independently. Obtained results were analyzed using Flowing software 2 (Cell Imaging Core, Turku Centre for Biotechnology, University of Turku Åbo Akademi University).

[1] = BALB/3T3, normal mouse fibroblasts

| IC50 (LoVo cells; Homo sapiens, LoVo) [µM] | IC50 (A549 cells; Homo sapiens, A549) [µM] | Molecule | IC50 (BALB/3T3 cells; normal mouse fibroblasts) [µM] | IC50 (LoVo cells) [µM] | Selectivity index SI, LoVo (LoVo cells) | IC50 (A549 cells) [µM] | Selectivity index SI, A549 (A549 cells) | Mean number of aphids settled on treated (test) leaf (Myzus persicae; 1 h after access) | Mean number of aphids settled on treated (test) leaf (Myzus persicae; 2 h after access) | Mean number of aphids settled on treated (test) leaf (Myzus persicae; 24 h after access) | Effect on aphid settling behavior (deterrent / attractant) (Myzus persicae) | IC50 (BALB/3T3 cells; [1]) [µM] | Induced death of cells (MV4-11 cells) |
| --- | --- | --- | --- | --- | --- | --- | --- | --- | --- | --- | --- | --- | --- |
|  |  | 3,7,11,15-tetramethylhexadec-2-en-1-ol [Phytol (1), reference compound] | 64.5 ± 12.9 | 255 ± 46.5 | 0.25 | 64.1 ± 5.2 | 1.01 | 10.4 (± 1.3) | 7.9 (± 1.0) | 6.6 (± 0.9) | deterrent properties |  |  |
|  |  | CC(C)CCCC(C)CCCC(C)CCC[C@]1(C)CC(=O)O[C@@H]1CBr (stereo in doubt) [compound 4, trans-5-Bromomethyl-4-methyl-4-(4′,8′,12′-trimethyltridecyl)dihydrofuran-2-one] |  |  |  |  |  | 2.9 (± 0.7) | 2.4 (± 0.6) | 4.9 (± 1.7) |  | 348 ± 27.6 | 20–30% |
|  |  | CC(C)CCCC(C)CCCC(C)CCC[C@]1(C)CC(=O)O[C@H]1CBr (stereo in doubt) [compound 5, cis-5-Bromomethyl-4-methyl-4-(4′,8′,12′-trimethyltridecyl)dihydrofuran-2-one] |  |  |  |  |  | 3.4 (± 1.0) | 3.0 (± 1.1) | 5.6 (± 1.4) |  | 424 ± 140 | 20–30% |
| 293 ± 33.1 | 378 ± 32.8 | CC(C)CCCC(C)CCCC(C)CCC[C@]1(C)CC(=O)O[C@@H]1CCl (stereo in doubt) [compound 6, trans-5-Chloromethyl-4-methyl-4-(4′,8′,12′-trimethyltridecyl)dihydrofuran-2-one] |  |  | 0.93 |  | 0.72 | 5.8 (± 1.3) | 4.5 (± 1.1) | 10.0 (± 1.7) | attractant properties | 273 ± 16.4 | 50% |
|  |  | CC(C)CCCC(C)CCCC(C)CCC[C@]1(C)CC(=O)O[C@H]1CCl (stereo in doubt) [compound 7, cis-5-chloromethyl-4-methyl-4-(4′,8′,12′-trimethyltridecyl)dihydrofuran-2-one] |  |  |  |  |  | 4.1 (± 1.0) | 3.5 (± 0.7) | 4.8 (± 0.9) |  |  | 20–30% |
| 59.5 ± 1.1 | 49.5 ± 2.9 | C=CC(C)(CCCC(C)CCCC(C)CCCC(C)C)CC(=O)O (stereo not drawn) [compound 3, 3,7,11,15-tetramethyl-3-vinylhexadecanoic acid] |  |  | 2.44 |  | 2.93 | 8.5 (± 2.1) | 8.9 (± 1.0) | 8.1 (± 1.3) |  | 145 ± 48 | 50% |
